Data from the NIST ThermoML archive (doi:10.1021/je8003782).
Several values for one entry are separate records, joined by “and”; a condition that tells them apart may be missing. Equal values may be shown once. Numbers after ± are expanded uncertainties.

Assays:
[1] = 101.3 kPa, Liquid
[2] = xn = mol fraction of the nth substance listed; settings: 101 kPa, Liquid

CC(=O)O [acetic acid]
[1]
Settings	mass density	viscosity
293.15 K	1049.42 ± 0.86 kg/m3 and 1049.42 ± 1.7 kg/m3	1.204 ± 0.017 mPa·s and 1.204 ± 0.029 mPa·s
298.15 K	1043.76 ± 0.82 kg/m3 and 1043.76 ± 1.6 kg/m3	1.114 ± 0.016 mPa·s and 1.114 ± 0.027 mPa·s
303.15 K	1038.1 ± 0.79 kg/m3 and 1038.1 ± 1.5 kg/m3	1.037 ± 0.016 mPa·s and 1.037 ± 0.026 mPa·s
308.15 K	1032.44 ± 0.75 kg/m3 and 1032.44 ± 1.4 kg/m3	0.964 ± 0.015 mPa·s and 0.964 ± 0.024 mPa·s
313.15 K	1026.77 ± 0.72 kg/m3 and 1026.77 ± 1.4 kg/m3	0.902 ± 0.015 mPa·s and 0.902 ± 0.023 mPa·s
318.15 K	1021.11 ± 0.68 kg/m3 and 1021.11 ± 1.3 kg/m3	0.841 ± 0.014 mPa·s and 0.841 ± 0.022 mPa·s
323.15 K	1015.44 ± 0.64 kg/m3 and 1015.44 ± 1.2 kg/m3	0.787 ± 0.014 mPa·s and 0.787 ± 0.021 mPa·s
328.15 K	1009.77 ± 0.61 kg/m3 and 1009.77 ± 1.2 kg/m3	0.741 ± 0.013 mPa·s and 0.741 ± 0.02 mPa·s
333.15 K	1004.09 ± 0.57 kg/m3 and 1004.09 ± 1.1 kg/m3	0.697 ± 0.013 mPa·s and 0.697 ± 0.019 mPa·s
338.15 K	998.38 ± 0.56 kg/m3	0.657 ± 0.013 mPa·s

CC(=O)O [acetic acid] + C1N2CN3CN1CN(C2)C3
[2], x2 = 0
Settings	mass density [kg/m3]	viscosity [mPa·s]
293.15 K	1049.42 ± 1.7	1.204 ± 0.029
298.15 K	1043.76 ± 1.6	1.114 ± 0.027
303.15 K	1038.1 ± 1.5	1.037 ± 0.026
308.15 K	1032.44 ± 1.4	0.964 ± 0.024
313.15 K	1026.77 ± 1.4	0.902 ± 0.023
318.15 K	1021.11 ± 1.3	0.841 ± 0.022
323.15 K	1015.44 ± 1.2	0.787 ± 0.021
328.15 K	1009.77 ± 1.2	0.741 ± 0.02
333.15 K	1004.09 ± 1.1	0.697 ± 0.019

CC(=O)O [acetic acid] + CC(=O)OC(C)=O
[2], x1 = 1
Settings	mass density [kg/m3]	viscosity [mPa·s]
293.15 K	1049.42 ± 0.86	1.204 ± 0.017
298.15 K	1043.76 ± 0.82	1.114 ± 0.016
303.15 K	1038.1 ± 0.79	1.037 ± 0.016
308.15 K	1032.44 ± 0.75	0.964 ± 0.015
313.15 K	1026.77 ± 0.72	0.902 ± 0.015
318.15 K	1021.11 ± 0.68	0.841 ± 0.014
323.15 K	1015.44 ± 0.64	0.787 ± 0.014
328.15 K	1009.77 ± 0.61	0.741 ± 0.013
333.15 K	1004.09 ± 0.57	0.697 ± 0.013
338.15 K	998.38 ± 0.56	0.657 ± 0.013

CC(=O)OC(C)=O [ethanoic anhydride]
[1]
Settings	mass density [kg/m3]	viscosity [mPa·s]
293.15 K	1080.89 ± 1.5	0.888 ± 0.016
298.15 K	1074.8 ± 1.5	0.829 ± 0.015
303.15 K	1068.7 ± 1.4	0.778 ± 0.015
308.15 K	1062.61 ± 1.4	0.729 ± 0.014
313.15 K	1056.49 ± 1.4	0.688 ± 0.014
318.15 K	1050.38 ± 1.3	0.648 ± 0.014
323.15 K	1044.24 ± 1.3	0.61 ± 0.013
328.15 K	1038.07 ± 1.2	0.58 ± 0.013
333.15 K	1031.9 ± 1.2	0.548 ± 0.013
338.15 K	1025.7 ± 1.1	0.521 ± 0.013
